Source: ChEMBL document CHEMBL4190348, “Synthesis of cytotoxically active derivatives based on alkylated 2,3-seco-triterpenoids” (Eur J Med Chem, 2017)
Values after ≈ are worked out from the molar mass of the structure shown. Active and inactive are the calls of the source. The calls are words filed in the database; no cut-off is given here.

How the values were obtained:
A549 = assay: Cytotoxicity against human A549 cells assessed as reduction in cell viability incubated for 72 hrs by MTT assay; type: functional, cell-based; conditions: A549, 72 h
HCT-116 [1] = assay: Cytotoxicity against human HCT116 cells assessed as reduction in cell viability incubated for 72 hrs by MTT assay; type: functional, cell-based; conditions: HCT-116, 72 h
[2] = Cytotoxicity against human MS cells assessed as reduction in cell viability incubated for 72 hrs by MTT assay; type: functional, cell-based
RD = assay: Cytotoxicity against human TE32 cells assessed as reduction in cell viability incubated for 72 hrs by MTT assay; type: functional, cell-based
HEp-2 = assay: Cytotoxicity against human Hep2 cells assessed as reduction in cell viability incubated for 72 hrs by MTT assay; type: functional, cell-based; conditions: HEp-2, 72 h
[3] = Selectivity index, ratio of IC50 for HEK293 cells to IC50 for human MS cells; type: toxicity; conditions: HEK293 cells versus MS cells, read-out: Ratio IC50
HCT-116 [4] = assay: Induction of apoptosis in human HCT116 cells assessed as increase in caspase-3/7 activity at 10 uM after 18 hrs by fluorimetric assay; type: functional, cell-based
HCT-116 [5] = assay: Induction of apoptosis in human HCT116 cells assessed as increase in cck18 level at 10 uM after 18 hrs by fluorimetric assay; type: functional, cell-based
HCT-116 [6] = assay: Induction of apoptosis in human HCT116 cells assessed as necrotic cells level at 10 uM incubated for 16 hrs by Annexin V-FICT/PI staining based flow cytometry (reference value: 1.67%); type: functional
[7] = Selectivity index, ratio of IC50 for HEK293 cells to IC50 for human HCT116 cells; type: toxicity; conditions: HEK293 cells versus HCT116 cells, read-out: Ratio IC50
HCT-116 [8] = assay: Cytotoxicity against human HCT116 cells assessed as reduction in cell viability at 10 uM incubated for 12 to 72 hrs by MTT assay; type: functional, cell-based; conditions: TDE = time-dependent effect
HCT-116 [9] = assay: Induction of apoptosis in human HCT116 cells assessed as viable cells level at 10 uM incubated for 16 hrs by Annexin V-FICT/PI staining based flow cytometry (reference value: 91.36%); type: functional
HCT-116 [10] = assay: Induction of apoptosis in human HCT116 cells assessed as increase in caspase-3/7 activity at 10 uM after 24 hrs by fluorimetric assay; type: functional, cell-based
[11] = Selectivity index, ratio of IC50 for HEK293 cells to IC50 for human TE32 cells; type: toxicity; conditions: HEK293 cells versus TE32 cells, read-out: Ratio IC50
HCT-116 [12] = assay: Induction of apoptosis in human HCT116 cells assessed as early apoptotic cells level at 10 uM incubated for 16 hrs by Annexin V-FICT/PI staining based flow cytometry (reference value: 4.47%); type: functional
HCT-116 [13] = assay: Induction of apoptosis in human HCT116 cells assessed as increase in mitochondrial membrane depolarization at 10 uM incubated for 18 hrs by rhodamine 123 staining based fluorescent inverted microscopy (reference value: 8%); type: functional
HCT-116 [14] = assay: Induction of apoptosis in human HCT116 cells assessed as increase in caspase-8 activity at 10 uM after 12 hrs by fluorimetric assay; type: functional, cell-based
HEK293 = assay: Cytotoxicity against HEK293 cells assessed as reduction in cell viability incubated for 72 hrs by MTT assay; type: cell-based; conditions: Homo sapiens, HEK293, 72 h
HCT-116 [15] = assay: Induction of apoptosis in human HCT116 cells assessed as increase in chromatin condensation at 10 uM incubated for 18 hrs by Hoechst 33258 staining based fluorescent inverted microscopy; type: functional
HCT-116 [16] = assay: Induction of apoptosis in human HCT116 cells assessed as late apoptotic cells level at 10 uM incubated for 16 hrs by Annexin V-FICT/PI staining based flow cytometry (reference value: 2.51%); type: functional
[17] = Selectivity index, ratio of IC50 for HEK293 cells to IC50 for human Hep2 cells; type: toxicity; conditions: HEK293 cells versus Hep2 cells, read-out: Ratio IC50
HL-60 = assay: Growth inhibition of human HL60 cells; type: functional
[18] = test system: Human immunodeficiency virus 1; assay: Antiviral activity against HIV1; type: functional, organism-based
Human alphaherpesvirus 1 = assay: Antiviral activity against HSV1; type: functional, organism-based
HCT-116 [19] = assay: Induction of apoptosis in human HCT116 cells assessed as increase in mitochondrial membrane depolarization at 2 uM incubated for 18 hrs by rhodamine 123 staining based fluorescent inverted microscopy (reference value: 8%); type: functional
HCT-116 [20] = assay: Induction of apoptosis in human HCT116 cells assessed as late apoptotic cells level at 2 uM incubated for 16 hrs by Annexin V-FICT/PI staining based flow cytometry (reference value: 2.51%); type: functional
HCT-116 [21] = assay: Induction of apoptosis in human HCT116 cells assessed as necrotic cells level at 2 uM incubated for 16 hrs by Annexin V-FICT/PI staining based flow cytometry (reference value: 1.67%); type: functional
HCT-116 [22] = assay: Induction of apoptosis in human HCT116 cells assessed as viable cells level at 2 uM incubated for 16 hrs by Annexin V-FICT/PI staining based flow cytometry (reference value: 91.36%); type: functional
HCT-116 [23] = assay: Induction of apoptosis in human HCT116 cells assessed as early apoptotic cells level at 2 uM incubated for 16 hrs by Annexin V-FICT/PI staining based flow cytometry (reference value: 4.47%); type: functional

Compound	IC50 (A549) [µM]	IC50 (HCT-116 [1]) [µM]	IC50 [2] [µM]	IC50 (RD) [µM]	IC50 (HEp-2) [µM]	also measured
CC1(C)CC[C@]23CC[C@]4(C)[C@H](CC[C@@H]5[C@@](C)(CC#N)[C@H](C(C)(C)C(=O)CBr)CC[C@]54C)[C@H]2[C@H]1OC3	> 100	> 100	> 100	52.9	> 100	–
C=C(C=O)[C@@H]1CC[C@]2(C(=O)OC)CC[C@]3(C)[C@H](CC[C@@H]4[C@@](C)(CC#N)[C@H](C(C)(C)C(=O)CBr)CC[C@]43C)[C@@H]12	25.4	10.3	3.41	3.84	5.28	selectivity ratio [3]: 27.2; Activity (HCT-116 [4]): Active; Activity (HCT-116 [5]): Active; Activity (HCT-116 [6]): 4.46%; selectivity ratio [7]: 8.9; Activity (HCT-116 [8]): Tde; Activity (HCT-116 [9]): 59.86%; Activity (HCT-116 [10]): Active; selectivity ratio [11]: 24.3; Activity (HCT-116 [12]): 25.61%; Activity (HCT-116 [13]): 11.6%; Activity (HCT-116 [14]): Active; IC50 (HEK293): 92.3 µM; Activity (HCT-116 [15]): 28.3%; Activity (HCT-116 [16]): 10.07%; selectivity ratio [17]: 17.4
C=C(C)[C@@H]1CC=C2[C@@H](CC[C@]3(C)[C@@H]([C@H](C)CC(=O)CC(C)C)CC[C@@]23C)[C@@]1(C)CCC(=O)O	–	–	–	–	–	GI50 (HL-60): 6.8 µM
CC1(C)CC[C@]23CC[C@]4(C)[C@H](CC[C@@H]5[C@@](C)(CC#N)[C@H](C(C)(C)C(=O)C(Br)Br)CC[C@]54C)[C@H]2[C@H]1OC3	> 100	> 100	> 100	> 100	> 100	–
CC(=O)C(C)(C)[C@@H]1CC[C@]2(C)[C@H](CC[C@@H]3[C@H]4[C@H]5OC[C@@]4(CCC5(C)C)CC[C@]32C)[C@@]1(C)CC#N	> 100	> 100	> 100	> 100	> 100	EC50 [18]: 7.2 µg/mL (≈ 15.4 µM); EC50 (Human alphaherpesvirus 1): 21.1 µg/mL (≈ 45.1 µM)
COC(=O)[C@]12CC[C@@H](C(C)=O)[C@@H]1[C@H]1CC[C@@H]3[C@@](C)(CC#N)[C@H](C(C)(C)C(C)=O)CC[C@@]3(C)[C@]1(C)CC2	> 100	> 100	> 100	> 100	> 100	–
C=C(C=O)[C@@H]1CC[C@]2(C(=O)OC)CC[C@]3(C)[C@H](CC[C@@H]4[C@@]5(C)C(C#N)=C(C)C(C)(C)[C@@H]5CC[C@]43C)[C@@H]12	36	7.09	8.59	21.8	17.4	–
C=C(C)[C@@H]1CC[C@]2(C(=O)O)CC[C@]3(C)[C@H](CC[C@@H]4[C@@]5(C)[C@H](C(=O)O)[C@H](O)C(C)(C)[C@@H]5CC[C@]43C)[C@@H]12 [EPICEANOTHIC ACID]	–	–	–	–	–	EC50 [18]: < 0.064 µg/mL
C=C(C)[C@@H]1CC[C@]2(C(=O)OC)CC[C@]3(C)[C@H](CC[C@@H]4[C@@](C)(CC#N)[C@H](C(C)(C)[C@@H](C)OC(C)=O)CC[C@]43C)[C@@H]12	92.7	> 100	96.9	42.5	> 100	–
C=C(C=O)[C@@H]1CC[C@]2(C(=O)OC)CC[C@]3(C)[C@H](CC[C@@H]4[C@@](C)(CC#N)[C@H](C(C)(C)C(C)=O)CC[C@]43C)[C@@H]12	15.4	7.3	5.48	5.04	52.1	IC50 (HEK293): 6 µM
CC1(C)CC[C@]23CC[C@]4(C)[C@H](CC[C@@H]5[C@@]6(C)C/C(=N\O)[C@](C)(O)C(C)(C)[C@@H]6CC[C@]54C)[C@H]2[C@H]1OC3	> 100	> 100	87.3	33.7	85.4	–
CC[C@@]1(O)C(=O)OCc2c1cc1n(c2=O)Cc2cc3ccccc3nc2-1 [CAMPTOTHECIN]	–	1.88	1.84	–	3.04	Activity (HCT-116 [19]): -30%; Activity (HCT-116 [20]): 5.07%; Activity (HCT-116 [21]): 1.6%; Activity (HCT-116 [22]): 80.88%; Activity (HCT-116 [23]): 12.44%
C[C@@H](O)C(C)(C)[C@@H]1CC[C@]2(C)[C@H](CC[C@@H]3[C@H]4[C@H]5OC[C@@]4(CCC5(C)C)CC[C@]32C)[C@@]1(C)CC#N	> 200	> 100	83.3	96.5	> 100	–
C=C(C)[C@@H]1CC[C@]2(C(=O)OC)CC[C@]3(C)[C@H](CC[C@@H]4[C@@](C)(CC#N)[C@H](C(C)(C)[C@@H](C)O)CC[C@]43C)[C@@H]12	19.1	31.7	15.1	20.2	43.8	–
C=C(C)[C@@H]1CC[C@]2(C(=O)OC)CC[C@]3(C)[C@H](CC[C@@H]4[C@@](C)(CC#N)[C@H](C(C)(C)C(C)=O)CC[C@]43C)[C@@H]12	> 100	> 100	> 100	> 100	> 100	EC50 [18]: 39.9 µg/mL (≈ 80.5 µM)
CC1(C)CC[C@]23CC[C@]4(C)[C@H](CC[C@@H]5[C@@]6(C)C(C#N)=C(CO)C(C)(C)[C@@H]6CC[C@]54C)[C@H]2[C@H]1OC3	57.8	> 100	> 100	> 100	> 100	–
COC(=O)[C@]12CC[C@@H](C(C)=O)[C@@H]1[C@H]1CC[C@@H]3[C@@]4(C)C(C#N)=C(C)C(C)(C)[C@@H]4CC[C@@]3(C)[C@]1(C)CC2	> 100	> 100	> 100	> 100	> 100	–
C=C(C)[C@@H]1CC[C@]2(C(=O)OC)CC[C@]3(C)[C@H](CC[C@@H]4[C@@]5(C)C/C(=N\O)[C@](C)(O)C(C)(C)[C@@H]5CC[C@]43C)[C@@H]12	55.4	> 100	23.5	29	71	–
CC(=O)O[C@H](C)C(C)(C)[C@@H]1CC[C@]2(C)[C@H](CC[C@@H]3[C@H]4[C@H]5OC[C@@]4(CCC5(C)C)CC[C@]32C)[C@@]1(C)CC#N	45.7	65.3	21.3	31.9	> 100	–
C=C(C=O)[C@@H]1CC[C@]2(C(=O)OC)CC[C@]3(C)[C@H](CC[C@@H]4[C@@](C)(CC#N)[C@H](C(C)(C)C(=O)C(Br)Br)CC[C@]43C)[C@@H]12	> 100	26.3	6.27	6.96	> 100	–
